The text below walks through data of PMC7537338, “CD47/SIRPα blocking peptide identification and synergistic effect with irradiation for cancer immunotherapy” (Journal for Immunotherapy of Cancer, 2020).

Data set [1] has as its target T1, human CD47/SIRPα interaction (Homo sapiens, UniProt Q08722).
T1 construct: Human or mouse CD47-IgV-Domain-hIg fusion proteins (20 nM, Sino Biological, China); purchased Sino Biological (hIg fusion); ACROBiosystems (biotinylated human CD47); host or cells: SIRPα partner: CHO cells stably expressing human SIRPα
The experiment in a line: Blocking assay, human CD47 protein binding to CHO cells expressing human SIRPα (flow cytometry). The note with it: blockade of peptides to hCD47 relative to parent pep-20, Table S4. On the procedure:
Human or mouse CD47-IgV-Domain-hIg fusion proteins (20 nM, Sino Biological, China), or biotinylated human CD47 protein (20 nM, ACROBiosystems, USA) was incubated with titrating concentrations of peptides or anti-human CD47 antibody (B6H12) in phosphate-buffered saline (PBS, pH 7.4) for 1 hour at 4°C. The mixture was incubated with human or mice SIRPα overexpressed Chinese hamster ovary cells for 30 min at 4°C, washed to remove unbound mixtures and phycoerythrin (PE)-conjugated goat anti-human IgG or PE-conjugated streptavidin was incubated (eBioscience, USA). Cells were then analyzed by flow cytometry (BD Biosciences, USA). The IC50 was determined from sigmoidal dose response curves illustrated by GraphPad Prism.

For data set [2], the system named is MC38 tumor-bearing C57BL/6 mice. The experiment in a line: Hematological toxicity in MC38 tumor-bearing mice. It counts as in vivo. The settings on record: 2 mg/kg i.p. every day two weeks versus miap301 400 μg every 3 days x5, day 14, n = 4 - 5. As for the experimental part:
anti-CD47. (A, B) MC38 tumor-bearing C57BL/6 mice were treated i.p. with 2 mg/kg pep-20-D12 every day for two weeks or 400μg anti -mouse CD47 antibody
(miap301) every 3 days for a total of 5 times, and normal saline or ratIg as the negative controls, respectively (n = 4 - 5). On day 14, hematologic parameters of red blood cell (A), hemoglobin (B) level were analyzed. Data are represented as means ± SEM. Statistical significance was determined by unpaired Student's t test.
111 Mouse toxicity assays
112 Normal C57BL/6 mice were injected s.c. with 2 mg/kg peptides or normal 113 saline as the negative control daily from day 1 to 14 (n = 5). On days 0 and 14, 114 mice blood samples were collected via retro-orbital bleed. For MC38 115 tumor-bearing mice, blood samples were collected after treatment (n = 4 - 5).
116 Hematologic and blood biochemical parameters were analyzed by ADVIA 117 2120i Hematology Analyzer (Siemens, Germany). […]
124 The 3D structure of pep-20 was predicted by pep-FOLD3. […] The ΔdAffinity 126 between pep-20 and pep-20-derived alanine substituation analogue peptides 127 were calculated by Ala-scanning of molecular operating environment (MOE, 128 Chemical Computing Group, CA), which was used to display the structure of 129 pep-20 and docking model of pep-20 and CD47 including interaction of […]

Data set [3] in a line: Peptide stability assay in 10% human serum. It counts as in vitro ADME. The note with it: 200 μM peptide in normal saline, fresh human serum 10% vol/vol, 37°C, sampled 0 min to 48 h, RP-HPLC, triplicates. On the procedure: proteolysis compared with parent pep-20. (A, B) Dose response curves of pep-20-D12 interfering CD47-Sirpα interaction. […]
peptide and serum were analyzed by RP-HPLC. Error bars indicate standard deviation of triplicates. Data are represented as means ± SEM. (E, F) The pharmacokinetic analysis […]
of pep-20 and pep- 20-D12.
Data are represented as means ± SEM. […]
human serum (10%, vol/vol).
8h, 24h, 36h and 48h. The acetonitrile-glacial acetic acid mixture was utilized 136 to terminate the enzymatic reaction. After centrifuged at 12000 rpm for 10 min, 137 […]
Pharmacokinetic assays in vivo 140 […]
intravenous dose of 40 mg/kg of peptides. Blood samples were collected an d 142 […]
rpm for 10 min. The supernatant was analyzed by RP-HPLC. The 145 pharmacokinetic parameters of peptides were determined by 146 noncompartmental analysis (NCA) using Phoenix WinNonlin software program 147 5.2.1 (Certara, Princeton, USA). The maximum plasma concentration Cmax and 148 elimination half-life (T1/2) were calculated. 149

Data set [4] is described as follows: in vivo. The settings on record: C57BL/6, mouse, iv, 40 mg/kg.
Experimental: (§1) of pep-20 and pep- 20-D12. The plasma concentration-time curve of pep-20 (E) and
(§2) C57BL/6 mice with weight of 18-20 g were administrated with a single 141
(§3) centrifuged at 8000 rpm for 10 min at the indicated intervals. Plasma wa s 143
(§4) further mixed with 10% HClO4 at a ratio of 2∶1 (v/v) and centrifuged at 16,000 144
Data set [5] in a line: Pharmacokinetic assay in vivo. The settings on record: C57BL/6, mouse, plasma, iv, 40 mg/kg.
Experimental: as §1, §2, §3, §4

Where a SMILES comes first, the peptide text is derived from it. [ ]: non-standard residue; d: D form.

T1 sequence (Q08722 19-127 limits assumed): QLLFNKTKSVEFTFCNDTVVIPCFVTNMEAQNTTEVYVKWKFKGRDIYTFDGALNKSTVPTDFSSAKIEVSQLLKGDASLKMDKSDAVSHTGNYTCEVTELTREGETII

With `C[C@H](NC(=O)[C@@H](CO)NC(=O)[C@@H](Cc1c[nH]c2ccccc12)NC(=O)[C@@H](C)N)C(=O)N[C@H](C(=O)N[C@@H](Cc1c[nH]c2ccccc12)C(=O)N[C@@H](CO)C(=O)N[C@@H](CC(N)=O)C(=O)N[C@@H](Cc1ccc(O)cc1)C(=O)N[C@H](Cc1c[nH]c2ccccc12)C(=O)N[C@H](CCCNC(=N)N)C(=O)N[C@H](Cc1c[nH]cn1)C(=O)O)[C@@H](C)O` [pep-20-D12] (H-[dA][dW][dS]ATWSNY[dW][dR][dH]-OH), the “Blocking rate relative to pep-20 (%)” value in data set [1] amounted to 105%. The “Blood toxicity (red blood cell, hemoglobin) compared with anti-CD47 antibody” value in data set [2] is given as “less blood toxicity”. In addition, the “Time for which the initial concentration was retained in human serum” value in data set [3] is recorded as “up to 36 hours”. The same compound had a half-life in data set [4] of 6.36 h. The Cmax in data set [5] worked out at 54.5 µg/mL.
